Consider 16 compounds from patent US8946268B2, “Modulators of HEC1 activity and methods therefor” (Taivex Therapeutics, Inc., priority 2010, dated 2015).

Holding throughout (format): cell-based
For one test, the system named is MDA-MB-468. Put plainly: Antiproliferative activity (MTS assay), MDA-MB-468. Particulars: Homo sapiens, MDA-MB-468, 96 h, MDA-MB-468 cells. The procedure:
(§1) Antiproliferative effect is expressed as IC50 values in microMolar final concentration.
(§2) Cells were grown at 37° C. in a humidified atmosphere with 5% CO2 and 95% air. Cells were seeded in 96 well tissue culture plates.
(§3) Compound treatment started after overnight incubation of cells (TO). […] Compound was added to the plate in triplicate wells, and the plates were then incubated for 96 hours. DMSO (compounds diluents) was also included and added to the plate in control wells. Cell viability was then determined by MTS assay using CellTiter 96® AQueous non-radioactive cell proliferation assay system (Promega). A plate reader (Molecular Devices, Vmax) was used to read the optical densities, and the results were used to deduce concentration-response curves. […] The results were analyzed using linear regression software (GraphPad Prism 5; GraphPad Software Inc.).
(§4) The GI50 values (growth inhibitory activity) were determined to emphasize on the correction for the cell count at time zero; thus, the % inhibition of test drug were: [1−(T−T0)/(C−T0)]×100; and these value were used to plot the concentration-response curves, and then analyzed with linear regression software (GraphPad Prism 5).
(In general: Formazan colour is commonly taken as a measure of viable cells.)

Another test relates to K562. Description: Antiproliferative activity (MTS assay), K562. To be noted: Homo sapiens, K562, 96 h, K562 cells. The procedure:
as §1, §2, §3, §4

The subject of the next test is Hela. Description: Antiproliferative activity (MTS assay), Hela. Particulars: Homo sapiens, HeLa, 96 h, Hela cells. The procedure: as §1, §2, §3, §4
The subject of a further test is MDA-MB-231. Put plainly: Antiproliferative activity (MTS assay), MDA-MB-231. Particulars: Homo sapiens, MDA-MB-231, 96 h, MDA-MB-231 cells. The procedure:
as §1, §2, §3, §4

Each structure is given as a SMILES string.

What is called IC50 is the concentration that inhibits the measured activity by half. Low values mean inhibition by little substance, high ones a need for much substance. On to `Cc1cc(C)c(-c2csc(NC(=O)c3ccnc(N4CCCCC4)c3)n2)c(C)c1` [Compound 91], for which the IC50 with MDA-MB-468 was 4660 nM; in the test on K562, 1400 nM; in the test on Hela, > 10000 nM; with MDA-MB-231, 6060 nM.

In the case of `Cc1cc(C)c(-c2csc(NC(=O)c3ccnc(N(C)C)c3)n2)c(C)c1` [Compound 92], the IC50 in the test with MDA-MB-468 is 3290 nM; with K562, 450 nM; in the test with Hela, > 10000 nM; with MDA-MB-231, 2210 nM.

For `Cc1cc(C)c(-c2csc(NC(=O)Cc3ccncc3)n2)c(C)c1` [Compound 93], the IC50 in the test with MDA-MB-468 came to 300 nM; in the test with K562, 380 nM; with Hela it was 620 nM; in the test with MDA-MB-231, 310 nM.

Regarding `Cc1cc(OCC(C)O)cc(C)c1-c1csc(NC(=O)c2ccncc2)n1` (stereo not shown) [Compound 94], the IC50 was 390 nM in the test with MDA-MB-468, 230 nM in the test with K562, 230 nM in the test on Hela and 300 nM in the test on MDA-MB-231.

In the case of `Cc1cc(OCC(O)CO)cc(C)c1-c1csc(NC(=O)c2ccncc2)n1` (stereo not shown) [Compound 97], the IC50 in the test on MDA-MB-468 came to 3110 nM; in the test with K562, 9110 nM; with Hela, 3260 nM; in the test on MDA-MB-231 it was 8300 nM.

`COc1ccc(Oc2cc(C)c(-c3csc(NC(=O)c4ccnc(F)c4)n3)c(C)c2)cc1` [Compound 98]: the IC50 in the test on MDA-MB-468 was found to be 40 nM; in the test with K562, 20 nM; with Hela, 40 nM; in the test with MDA-MB-231, 20 nM.

With `Cc1cc(Oc2ccc3c(c2)OCO3)cc(C)c1-c1csc(NC(=O)c2ccncc2)n1` [Compound 101], the IC50 was found to be 130 nM with MDA-MB-468, 50 nM with K562, 110 nM in the test with Hela and 70 nM with MDA-MB-231.

Turning to `Cc1cc(C)c(-c2csc(NC(=O)/C=C/c3cccnc3)n2)c(C)c1` [Compound 103], the IC50 in the test with MDA-MB-468 is 2170 nM; with K562, 2480 nM; in the test with Hela it was > 10000 nM; in the test with MDA-MB-231, 1110 nM.

Take `Cc1cc(C)c(-c2csc(NC(=O)c3ccc4cn[nH]c4c3)n2)c(C)c1` [Compound 104]: the IC50 in the test on MDA-MB-468 was 7640 nM; with K562 it was 2440 nM; with Hela, > 10000 nM; in the test with MDA-MB-231, 1100 nM.

Turning to `Cc1cc(C)c(-c2csc(NC(=O)c3ccc4[nH]ncc4c3)n2)c(C)c1` [Compound 105], the IC50 with MDA-MB-468 was 8020 nM; in the test on K562, > 10000 nM; with Hela, > 10000 nM; with MDA-MB-231 it was > 10000 nM.

For `Cc1cc(C)c(-c2csc(NC(=O)c3ccc4[nH]nnc4c3)n2)c(C)c1` [Compound 106], the IC50 in the test with MDA-MB-468 is > 10000 nM; in the test with K562 it was > 10000 nM; in the test with Hela, > 10000 nM; with MDA-MB-231, 4950 nM.

`COCCOc1cc(C)c(-c2csc(NC(=O)c3ccncc3)n2)c(C)c1` [Compound 109]: the IC50 with MDA-MB-468 came out at 280 nM; in the test with K562, 240 nM; in the test on Hela it was 310 nM; in the test on MDA-MB-231, 260 nM.

Regarding `COCCCOc1cc(C)c(-c2csc(NC(=O)c3ccncc3)n2)c(C)c1` [Compound 110], the IC50 stood at 130 nM in the test with MDA-MB-468, 100 nM in the test on K562, 110 nM in the test with Hela and 90 nM in the test with MDA-MB-231.

On to `COc1ccccc1Oc1cc(C)c(-c2csc(NC(=O)c3ccncc3)n2)c(C)c1` [Compound 111], for which the IC50 is 330 nM with MDA-MB-468, 180 nM in the test with K562, 330 nM in the test with Hela and 250 nM in the test on MDA-MB-231.

As for `Cc1cc(I)cc(C)c1-c1csc(NC(=O)c2ccncc2)n1` [Compound 114], the IC50 in the test on MDA-MB-468 amounted to 550 nM; in the test on K562, 230 nM; in the test with Hela, 400 nM; in the test with MDA-MB-231, 300 nM.

With `Cc1cc(Sc2ccccc2)cc(C)c1-c1csc(NC(=O)c2ccncc2)n1` [Compound 115], the IC50 was determined as 220 nM in the test with MDA-MB-468, 140 nM in the test on K562, 230 nM in the test with Hela and 170 nM in the test on MDA-MB-231.
